Legend:
[1] = target: M1R–M5R; settings: read-out: Ki (M1R–M4R); range over M1R–M4R; cited from earlier work
[2] = target: T1, M2R (Homo sapiens, UniProt P08172); assay: Equilibrium competition binding with [^3H]64 at CHO-hM2R cell homogenates
T1 sequence (P08172 1-466): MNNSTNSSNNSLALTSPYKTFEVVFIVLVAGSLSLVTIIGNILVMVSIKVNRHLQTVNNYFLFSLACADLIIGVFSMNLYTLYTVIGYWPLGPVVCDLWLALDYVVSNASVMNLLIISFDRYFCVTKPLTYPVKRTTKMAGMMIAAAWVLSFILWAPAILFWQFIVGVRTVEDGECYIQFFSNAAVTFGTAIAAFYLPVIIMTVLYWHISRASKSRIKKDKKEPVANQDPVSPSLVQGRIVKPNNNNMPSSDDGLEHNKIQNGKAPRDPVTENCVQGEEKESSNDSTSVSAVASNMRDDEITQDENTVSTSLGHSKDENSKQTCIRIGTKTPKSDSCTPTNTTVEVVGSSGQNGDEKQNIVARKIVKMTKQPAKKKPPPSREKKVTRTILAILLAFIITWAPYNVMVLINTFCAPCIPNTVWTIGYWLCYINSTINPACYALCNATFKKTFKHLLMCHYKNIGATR

Row | displacement of [^3H]64 from the M2R-specific binding sites [2] | Structure (SMILES) | Ki [1] [nM]
1 | – | CC(C)[N+](C)(CCOC(=O)C1c2ccccc2Oc2ccccc21)C(C)C [Compound 4, propantheline] | 0.057 to 0.33
2 | completely displaced | CCCCCCOc1nsnc1C1=CCCN(C)C1 [Compound 1, xanomeline] | –

Source: article PMC6044897 (ACS Omega, 2017)
